# Reference: ChEMBL document CHEMBL2434896, “Carbonic anhydrase inhibitors. Synthesis of heterocyclic 4-substituted pyridine-3-sulfonamide derivatives and their inhibition of the human cytosolic isozymes I and II and transmembrane tumor-associated isozymes IX and XII” (Eur J Med Chem, 2013)
# Activity calls are given as the source filed them. No cut-off for these calls is given here.
# How the values were obtained:
# [1] = test system: 786-0; assay: Growth inhibition of human 786-0 cells at 10 uM after 48 hrs by sulforhodamine B assay; format: functional; conditions: 786-0, 48 h, read-out: GI
# [2] = test system: NCI-H522; assay: Growth inhibition of human NCI-H522 cells at 10 uM after 48 hrs by sulforhodamine B assay; format: functional
# [3] = test system: EKVX; assay: Growth inhibition of human EKVX cells at 10 uM after 48 hrs by sulforhodamine B assay; format: functional
# [4] = test system: SK-MEL-28; assay: Growth inhibition of human SK-MEL-28 cells at 10 uM after 48 hrs by sulforhodamine B assay; format: functional, cell-based
# [5] = test system: NCI-H23; assay: Growth inhibition of human NCI-H23 cells at 10 uM after 48 hrs by sulforhodamine B assay; format: functional; conditions: NCI-H23, 48 h, read-out: GI
# [6] = test system: MDA-MB-231; assay: Growth inhibition of human MDA-MB-231 cells at 10 uM after 48 hrs by sulforhodamine B assay; format: functional
# [7] = test system: SK-MEL-5; assay: Growth inhibition of human SK-MEL-5 cells at 10 uM after 48 hrs by sulforhodamine B assay; format: functional
# [8] = test system: A549; assay: Growth inhibition of human A549/ATCC cells at 10 uM after 48 hrs by sulforhodamine B assay; format: functional
# [9] = test system: SF-268; assay: Growth inhibition of human SF268 cells at 10 uM after 48 hrs by sulforhodamine B assay; format: functional; conditions: SF-268, 48 h, read-out: GI
# [10] = test system: IGROV-1; assay: Growth inhibition of human IGROV1 cells at 10 uM after 48 hrs by sulforhodamine B assay; format: functional
# [11] = test system: M14; assay: Growth inhibition of human M14 cells at 10 uM after 48 hrs by sulforhodamine B assay; format: functional; conditions: M14, 48 h, read-out: GI
# [12] = test system: NCI-H322M; assay: Growth inhibition of human NCI-H322M cells at 10 uM after 48 hrs by sulforhodamine B assay; format: functional
# [13] = test system: UACC-62; assay: Growth inhibition of human UACC62 cells at 10 uM after 48 hrs by sulforhodamine B assay; format: functional
# [14] = test system: BT-549; assay: Growth inhibition of human BT549 cells at 10 uM after 48 hrs by sulforhodamine B assay; format: functional; conditions: BT-549, 48 h, read-out: GI
# [15] = test system: OVCAR-3; assay: Growth inhibition of human OVCAR3 cells at 10 uM after 48 hrs by sulforhodamine B assay; format: functional
# [16] = test system: SK-MEL-2; assay: Growth inhibition of human SK-MEL-2 cells at 10 uM after 48 hrs by sulforhodamine B assay; format: functional
# [17] = test system: SW-620; assay: Growth inhibition of human SW620 cells at 10 uM after 48 hrs by sulforhodamine B assay; format: functional
# [18] = test system: HCT-15; assay: Growth inhibition of human HCT15 cells at 10 uM after 48 hrs by sulforhodamine B assay; format: functional
# [19] = test system: K562; assay: Growth inhibition of human K562 cells at 10 uM after 48 hrs by sulforhodamine B assay; format: functional; conditions: K562, 48 h, read-out: GI
# [20] = test system: U-251; assay: Growth inhibition of human U251 cells at 10 uM after 48 hrs by sulforhodamine B assay; format: functional
# [21] = test system: NCI/ADR-RES; assay: Growth inhibition of human NCI-ADR-RES cells at 10 uM after 48 hrs by sulforhodamine B assay; format: functional
# [22] = test system: TK-10; assay: Growth inhibition of human TK10 cells at 10 uM after 48 hrs by sulforhodamine B assay; format: functional
# [23] = test system: SF-295; assay: Growth inhibition of human SF295 cells at 10 uM after 48 hrs by sulforhodamine B assay; format: functional
# [24] = test system: RXF 393; assay: Growth inhibition of human RXF393 cells at 10 uM after 48 hrs by sulforhodamine B assay; format: functional
# [25] = test system: HOP-62; assay: Growth inhibition of human HOP62 cells at 10 uM after 48 hrs by sulforhodamine B assay; format: functional
# [26] = test system: MCF7; assay: Growth inhibition of human MCF7 cells at 10 uM after 48 hrs by sulforhodamine B assay; format: functional
# [27] = test system: COLO 205; assay: Growth inhibition of human COLO205 cells at 10 uM after 48 hrs by sulforhodamine B assay; format: functional
# [28] = test system: A498; assay: Growth inhibition of human A498 cells at 10 uM after 48 hrs by sulforhodamine B assay; format: functional; conditions: A498, 48 h, read-out: GI
# [29] = test system: HL-60(TB); assay: Growth inhibition of human HL-60(TB) cells at 10 uM after 48 hrs by sulforhodamine B assay; format: functional; conditions: HL-60, 48 h, read-out: GI
# [30] = test system: MDA-MB-468; assay: Growth inhibition of human MDA-MB-468 cells at 10 uM after 48 hrs by sulforhodamine B assay; format: functional
# [31] = test system: HCC 2998; assay: Growth inhibition of human HCC2998 cells at 10 uM after 48 hrs by sulforhodamine B assay; format: functional
# [32] = test system: SF-539; assay: Growth inhibition of human SF539 cells at 10 uM after 48 hrs by sulforhodamine B assay; format: functional; conditions: SF-539, 48 h, read-out: GI
# [33] = test system: SNB-75; assay: Growth inhibition of human SNB75 cells at 10 uM after 48 hrs by sulforhodamine B assay; format: functional; conditions: SNB-75, 48 h, read-out: GI
# [34] = test system: SN12C; assay: Growth inhibition of human SN12C cells at 10 uM after 48 hrs by sulforhodamine B assay; format: functional
# [35] = test system: MOLT-4; assay: Growth inhibition of human MOLT4 cells at 10 uM after 48 hrs by sulforhodamine B assay; format: functional; conditions: MOLT-4, 48 h, read-out: GI
# [36] = test system: T47D; assay: Growth inhibition of human T47D cells at 10 uM after 48 hrs by sulforhodamine B assay; format: functional
# [37] = test system: OVCAR-5; assay: Growth inhibition of human OVCAR5 cells at 10 uM after 48 hrs by sulforhodamine B assay; format: functional
# [38] = test system: HT-29; assay: Growth inhibition of human HT-29 cells at 10 uM after 48 hrs by sulforhodamine B assay; format: functional
# [39] = test system: CAKI-1; assay: Growth inhibition of human CAKI-1 cells at 10 uM after 48 hrs by sulforhodamine B assay; format: functional
# [40] = test system: HCT-116; assay: Growth inhibition of human HCT116 cells at 10 uM after 48 hrs by sulforhodamine B assay; format: functional; conditions: HCT-116, 48 h, read-out: GI
# [41] = test system: SNB-19; assay: Growth inhibition of human SNB19 cells at 10 uM after 48 hrs by sulforhodamine B assay; format: functional
# [42] = test system: KM12; assay: Growth inhibition of human KM12 cells at 10 uM after 48 hrs by sulforhodamine B assay; format: functional; conditions: KM12, 48 h, read-out: GI
# [43] = test system: LOX IMVI; assay: Growth inhibition of human LOXIMVI cells at 10 uM after 48 hrs by sulforhodamine B assay; format: functional; conditions: read-out: GI
# [44] = target: Carbonic anhydrase 9 (Homo sapiens, UniProt Q16790); assay: Inhibition of human carbonic anhydrase 9 after 15 mins by stopped flow CO2 hydration assay
# [45] = test system: NCI-H460; assay: Growth inhibition of human NCI-H460 cells at 10 uM after 48 hrs by sulforhodamine B assay; format: functional
# [46] = test system: SR; assay: Growth inhibition of human SR cells at 10 uM after 48 hrs by sulforhodamine B assay; format: functional; conditions: read-out: GI
# [47] = test system: UACC-257; assay: Growth inhibition of human UACC257 cells at 10 uM after 48 hrs by sulforhodamine B assay; format: functional
# [48] = test system: MDA-MB-435; assay: Growth inhibition of human MDA-MB-435 cells at 10 uM after 48 hrs by sulforhodamine B assay; format: functional
# [49] = test system: OVCAR-8; assay: Growth inhibition of human OVCAR8 cells at 10 uM after 48 hrs by sulforhodamine B assay; format: functional
# [50] = test system: UO-31; assay: Growth inhibition of human UO31 cells at 10 uM after 48 hrs by sulforhodamine B assay; format: functional; conditions: UO-31, 48 h, read-out: GI
# [51] = test system: ACHN; assay: Growth inhibition of human ACHN cells at 10 uM after 48 hrs by sulforhodamine B assay; format: functional
# [52] = test system: DU-145; assay: Growth inhibition of human DU145 cells at 10 uM after 48 hrs by sulforhodamine B assay; format: functional
# [53] = test system: Hs-578T; assay: Growth inhibition of human Hs 578T cells at 10 uM after 48 hrs by sulforhodamine B assay; format: functional
# [54] = test system: OVCAR-4; assay: Growth inhibition of human OVCAR4 cells at 10 uM after 48 hrs by sulforhodamine B assay; format: functional
# [55] = test system: SK-OV-3; assay: Growth inhibition of human SKOV3 cells at 10 uM after 48 hrs by sulforhodamine B assay; format: functional
# [56] = test system: NCI-H226; assay: Growth inhibition of human NCI-H226 cells at 10 uM after 48 hrs by sulforhodamine B assay; format: functional; conditions: NCI-H226, 48 h, read-out: GI
# [57] = test system: Malme-3M; assay: Growth inhibition of human MALME-3M cells at 10 uM after 48 hrs by sulforhodamine B assay; format: functional; conditions: read-out: GI
smiles,measurement,setting,value
NS(=O)(=O)c1cnccc1N1CCN(Cc2ccccc2)CC1,inhibition of growth at 10 µM,[1],6%
same,growth inhibition (GI),[2],inactive
same,growth inhibition (GI),[3],inactive
same,growth inhibition (GI),[4],inactive
same,inhibition of growth at 10 µM,[5],1%
same,growth inhibition (GI),[6],inactive
same,growth inhibition (GI),[7],inactive
same,growth inhibition (GI),[8],inactive
same,inhibition of growth at 10 µM,[9],3%
same,growth inhibition (GI),[10],inactive
same,inhibition of growth at 10 µM,[11],2%
same,growth inhibition (GI),[12],inactive
same,growth inhibition (GI),[13],inactive
same,inhibition of growth at 10 µM,[14],9%
same,growth inhibition (GI),[15],inactive
same,growth inhibition (GI),[16],inactive
same,growth inhibition (GI),[17],inactive
same,growth inhibition (GI),[18],inactive
same,inhibition of growth at 10 µM,[19],3%
same,growth inhibition (GI),[20],inactive
same,growth inhibition (GI),[21],inactive
same,growth inhibition (GI),[22],inactive
same,growth inhibition (GI),[23],inactive
same,growth inhibition (GI),[24],inactive
same,growth inhibition (GI),[25],inactive
same,growth inhibition (GI),[26],inactive
same,growth inhibition (GI),[27],inactive
same,inhibition of growth at 10 µM,[28],5%
same,inhibition of growth at 10 µM,[29],8%
same,growth inhibition (GI),[30],inactive
same,growth inhibition (GI),[31],inactive
same,inhibition of growth at 10 µM,[32],6%
same,inhibition of growth at 10 µM,[33],7%
same,growth inhibition (GI),[34],inactive
same,inhibition of growth at 10 µM,[35],5%
same,growth inhibition (GI),[36],inactive
same,growth inhibition (GI),[37],inactive
same,growth inhibition (GI),[38],inactive
same,growth inhibition (GI),[39],inactive
same,inhibition of growth at 10 µM,[40],6%
same,growth inhibition (GI),[41],inactive
same,inhibition of growth at 10 µM,[42],1%
same,inhibition of growth at 10 µM,[43],4%
same,Ki,[44],45.1 nM
same,growth inhibition (GI),[45],inactive
same,inhibition of growth at 10 µM,[46],13%
same,growth inhibition (GI),[47],inactive
same,growth inhibition (GI),[48],inactive
same,growth inhibition (GI),[49],inactive
same,inhibition of growth at 10 µM,[50],14%
same,growth inhibition (GI),[51],inactive
same,growth inhibition (GI),[52],inactive
same,growth inhibition (GI),[53],inactive
same,growth inhibition (GI),[54],inactive
same,growth inhibition (GI),[55],inactive
same,inhibition of growth at 10 µM,[56],1%
same,inhibition of growth at 10 µM,[57],1%
CCOC(=O)CCc1c(C)nn(-c2ccncc2S(N)(=O)=O)c1C,Ki,[44],19.5 nM
NS(=O)(=O)c1cnccc1N1CCN(c2ccc(F)cc2)CC1,Ki,[44],239 nM
